Experimental data: PubChem BioAssay AID330 (DTP/NCI, 2004)
Values joined by “and” are separate entries in the source; they are usually repeats but may differ in a detail not shown here. Identical values can stand only once. Inconclusive results and toxic doses are left out.

Test system: P388 leukemia ip, CD2F1 mice, survival T/C
Assay: NCI In Vivo Anticancer Drug Screen. Data for tumor model P388 Leukemia (intraperitoneal) in CD2F1 (CDF1) mice
Conditions: endpoint: median survival time, higher = longer survival
Method in brief: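 Mice carrying the transplanted tumor received test compound or vehicle. Survival was recorded in each group, and the value is the treated-group measurement divided by that of the vehicle-treated control group.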

[1] = dose: 100.0 mg/kg/injection, schedule: Q01DX005 (ip), vehicle: saline with Tween-80
[2] = dose: 200.0 mg/kg/injection, schedule: Q01DX005 (ip), vehicle: saline with Tween-80
[3] = dose: 50.0 mg/kg/injection, schedule: Q01DX009 (ip), vehicle: saline with Tween-80
[4] = dose: 100.0 mg/kg/injection, schedule: Q01DX009 (ip), vehicle: saline with Tween-80
[5] = dose: 25.0 mg/kg/injection, schedule: Q01DX009 (ip), vehicle: saline with Tween-80
[6] = dose: 12.5 mg/kg/injection, schedule: Q01DX009 (ip), vehicle: saline
[7] = dose: 50.0 mg/kg/injection, schedule: Q01DX009 (ip), vehicle: saline
[8] = dose: 6.25 mg/kg/injection, schedule: Q01DX009 (ip), vehicle: saline
[9] = dose: 25.0 mg/kg/injection, schedule: Q01DX009 (ip), vehicle: saline
[10] = dose: 50.0 mg/kg/injection, schedule: Q01DX005 (ip), vehicle: Klucel (hydroxypropylcellulose) (HPC)
[11] = dose: 100.0 mg/kg/injection, schedule: Q01DX005 (ip), vehicle: Klucel (hydroxypropylcellulose) (HPC)
[12] = dose: 50.0 mg/kg/injection, schedule: Q01DX005 (ip), vehicle: saline with Tween-80
[13] = dose: 100.0 mg/kg/injection, schedule: Q01DX009 (ip), vehicle: saline
[14] = dose: 200.0 mg/kg/injection, schedule: Q01DX009 (ip), vehicle: saline
[15] = dose: 12.5 mg/kg/injection, schedule: Q01DX009 (ip), vehicle: saline with Tween-80
[16] = dose: 200.0 mg/kg/injection, schedule: Q01DX005 (ip), vehicle: Klucel (hydroxypropylcellulose) (HPC)

SMILES: CCCCCCCCCCCCn1c2nc(=O)[nH]c(=O)c-2nc2ccccc21
- T/C (dose: 3.12 mg/kg/injection, schedule: Q01DX005 (ip), vehicle: saline with Tween-80): 97 % of control
- T/C (dose: 6.25 mg/kg/injection, schedule: Q01DX005 (ip), vehicle: saline with Tween-80): 97 % of control
- T/C (dose: 12.5 mg/kg/injection, schedule: Q01DX005 (ip), vehicle: saline with Tween-80): 90 % of control
- T/C [1]: 87 % of control
- T/C [2]: 91 % of control

SMILES: CC(=O)OCc1ccc(/C=c2/[nH]c(=O)/c(=C\c3ccc(COC(C)=O)o3)[nH]c2=O)o1
- T/C (dose: 12.5 mg/kg/injection, schedule: Q01DX009 (ip), vehicle: distilled water + Tween-80): 88 % of control
- T/C (dose: 25.0 mg/kg/injection, schedule: Q01DX009 (ip), vehicle: distilled water + Tween-80): 90 % of control
- T/C (dose: 50.0 mg/kg/injection, schedule: Q01DX009 (ip), vehicle: distilled water + Tween-80): 96 % of control
- T/C (dose: 100.0 mg/kg/injection, schedule: Q01DX009 (ip), vehicle: distilled water + Tween-80): 114 % of control
- T/C (dose: 200.0 mg/kg/injection, schedule: Q01DX009 (ip), vehicle: distilled water + Tween-80): 99 % of control

SMILES: Cc1ccc(-n2c(N)c(C#N)c3c(c2=S)CCC3)cc1
- T/C (dose: 50.0 mg/kg/injection, schedule: Q01DX005 (ip), vehicle: Klucel + Tween-80): 100 % of control
- T/C (dose: 100.0 mg/kg/injection, schedule: Q01DX005 (ip), vehicle: Klucel + Tween-80): 107 % of control
- T/C (dose: 200.0 mg/kg/injection, schedule: Q01DX005 (ip), vehicle: Klucel + Tween-80): 96 % of control

SMILES: CCN(Cc1ccc(CN(CC)C(=O)c2c(-c3ccccc3)noc2C)cc1)C(=O)c1c(-c2ccccc2)noc1C
- T/C (dose: 50.0 mg/kg/injection, schedule: Q01DX009 (ip), vehicle: suspension in saline): 90 % of control
- T/C (dose: 100.0 mg/kg/injection, schedule: Q01DX009 (ip), vehicle: suspension in saline): 92 % of control
- T/C (dose: 200.0 mg/kg/injection, schedule: Q01DX009 (ip), vehicle: suspension in saline): 86 % of control and 94 % of control

SMILES: C=CCSc1nc(N)nc2nc[nH]c12
- T/C [3]: 100 % of control
- T/C [4]: 100 % of control
- T/C (dose: 200.0 mg/kg/injection, schedule: Q01DX009 (ip), vehicle: saline with Tween-80): 90 % of control

SMILES: Cn1c(=O)c2conc2n(-c2ccc(Cl)cc2)c1=O
- T/C [5]: 100 % of control
- T/C [3]: 103 % of control
- T/C [4]: 95 % of control

SMILES: O=C1C(O)=C(c2ccccc2)C(=O)C(O)=C1c1ccccc1
- T/C [6]: 101 % of control and 124 % of control
- T/C [7]: 157 % of control and 164 % of control

SMILES: O=[N+]([O-])c1nccn1C1OC(CO)C(O)C1O (stereo not drawn)
- T/C [8]: 98 % of control
- T/C [6]: 99 % of control
- T/C [9]: 104 % of control
- T/C [7]: 104 % of control

SMILES: CCOC(=O)C(CC(C)C(C)=O)C(=O)OCC (stereo not drawn)
- T/C (dose: 12.5 mg/kg/injection, schedule: Q01DX009 (ip), vehicle: other): 93 % of control
- T/C (dose: 25.0 mg/kg/injection, schedule: Q01DX009 (ip), vehicle: other): 90 % of control
- T/C (dose: 50.0 mg/kg/injection, schedule: Q01DX009 (ip), vehicle: other): 94 % of control
- T/C (dose: 100.0 mg/kg/injection, schedule: Q01DX009 (ip), vehicle: other): 97 % of control
- T/C (dose: 200.0 mg/kg/injection, schedule: Q01DX009 (ip), vehicle: other): 103 % of control

SMILES: COc1ccc2c(C)cc(NNC(N)=S)nc2c1
- T/C [10]: 104 % of control and 107 % of control
- T/C [11]: 111 % of control and 120 % of control

SMILES: ON=C1C2C=CC=CC1C=C2
- T/C [8]: 90 % of control
- T/C [6]: 96 % of control
- T/C [9]: 90 % of control

SMILES: O=C1OCC(c2ccno2)=C1O
- T/C (dose: 60.0 mg/kg/injection, schedule: Q01DX005 (ip), vehicle: Klucel (hydroxypropylcellulose) (HPC)): 100 % of control
- T/C (dose: 120.0 mg/kg/injection, schedule: Q01DX005 (ip), vehicle: Klucel (hydroxypropylcellulose) (HPC)): 100 % of control
- T/C (dose: 240.0 mg/kg/injection, schedule: Q01DX005 (ip), vehicle: Klucel (hydroxypropylcellulose) (HPC)): 104 % of control

SMILES: Nc1ccc(F)cc1S
- T/C [4]: 118 % of control

SMILES: COc1ccc(C(C)(c2cc(C(C)(C)C)c(O)c(C(C)(C)C)c2)n2ccnc2)cc1 (stereo not drawn)
- T/C [12]: 98 % of control
- T/C [1]: 94 % of control
- T/C [2]: 91 % of control

SMILES: COc1ccc2c(c1)nc1c([n+]2/N=C(\[O-])CCN(C)C)-c2cccc3cccc-1c23
- T/C (dose: 50.0 mg/kg/injection, schedule: Q01DX009 (ip), vehicle: Klucel (hydroxypropylcellulose) (HPC)): 110 % of control
- T/C (dose: 100.0 mg/kg/injection, schedule: Q01DX009 (ip), vehicle: Klucel (hydroxypropylcellulose) (HPC)): 111 % of control
- T/C (dose: 200.0 mg/kg/injection, schedule: Q01DX009 (ip), vehicle: Klucel (hydroxypropylcellulose) (HPC)): 116 % of control

SMILES: CCN(CC)P(=S)(c1ccccc1CCP(=S)(c1ccccc1)c1ccccc1)N(CC)CC
- T/C (dose: 60.0 mg/kg/injection, schedule: Q01DX005 (ip), vehicle: saline with Tween-80): 92 % of control
- T/C (dose: 120.0 mg/kg/injection, schedule: Q01DX005 (ip), vehicle: saline with Tween-80): 93 % of control
- T/C (dose: 240.0 mg/kg/injection, schedule: Q01DX005 (ip), vehicle: saline with Tween-80): 91 % of control

SMILES: NC1=C(Br)C(=O)c2[nH]c(=O)[nH]c(=O)c2C1=O
- T/C (dose: 6.25 mg/kg/injection, schedule: Q01DX005 (ip), vehicle: Klucel (hydroxypropylcellulose) (HPC)): 98 % of control
- T/C (dose: 12.5 mg/kg/injection, schedule: Q01DX005 (ip), vehicle: Klucel (hydroxypropylcellulose) (HPC)): 100 % of control
- T/C (dose: 25.0 mg/kg/injection, schedule: Q01DX005 (ip), vehicle: Klucel (hydroxypropylcellulose) (HPC)): 102 % of control
- T/C [10]: 100 % of control

SMILES: COc1ccc(N=Cc2ccc(C=Nc3ccc(OC)cc3OC)cc2)c(OC)c1
- T/C [7]: 93 % of control
- T/C [13]: 96 % of control
- T/C [14]: 91 % of control

SMILES: FC(F)(F)c1ccc2c3c(c4c(c2n1)OCN(Cc1ccc(Cl)cc1Cl)C4)CN(Cc1ccc(Cl)cc1Cl)CO3
- T/C (dose: 100.0 mg/kg/injection, schedule: Q01DX001 (ip), vehicle: other): 93 % of control
- T/C (dose: 200.0 mg/kg/injection, schedule: Q01DX001 (ip), vehicle: other): 93 % of control
- T/C (dose: 400.0 mg/kg/injection, schedule: Q01DX001 (ip), vehicle: other): 100 % of control

SMILES: CSC(=O)Nc1ccc(C)c(NC(=O)SC)c1
- T/C [12]: 94 % of control
- T/C [1]: 100 % of control
- T/C [2]: 100 % of control

SMILES: C#CCOc1c(Cl)cc(Cl)c2ccccc12
- T/C (dose: 100.0 mg/kg/injection, schedule: Q04DX003 (ip), vehicle: Klucel (hydroxypropylcellulose) (HPC)): 100 % of control
- T/C (dose: 200.0 mg/kg/injection, schedule: Q04DX003 (ip), vehicle: Klucel (hydroxypropylcellulose) (HPC)): 93 % of control
- T/C (dose: 400.0 mg/kg/injection, schedule: Q04DX003 (ip), vehicle: Klucel (hydroxypropylcellulose) (HPC)): 93 % of control

SMILES: C[N+]1(Cc2ccccc2)C2CCC1C(CCl)C(O)C2 (stereo not drawn)
- T/C (dose: 3.12 mg/kg/injection, schedule: Q01DX009 (ip), vehicle: saline): 111 % of control
- T/C [8]: 115 % of control
- T/C [6]: 101 % of control and 104 % of control

SMILES: O=C(/C=C/c1ccc(OCc2ccccc2)cc1)c1cccc(Cl)c1
- T/C (dose: 6.25 mg/kg/injection, schedule: Q01DX009 (ip), vehicle: saline with Tween-80): 95 % of control
- T/C [15]: 95 % of control
- T/C [5]: 93 % of control

SMILES: CC1NC(=O)N(Cc2ccccc2Cl)C1=O (stereo not drawn)
- T/C [10]: 110 % of control
- T/C [11]: 106 % of control
- T/C [16]: 110 % of control

SMILES: Oc1ccc(C2N=CNc3nc[nH]c32)c(O)c1 (stereo not drawn)
- T/C [7]: 105 % of control
- T/C [13]: 102 % of control
- T/C [14]: 100 % of control

SMILES: CNc1ccc([N+](=O)[O-])cc1C(=O)OC
- T/C [15]: 99 % of control
- T/C [5]: 98 % of control
- T/C [3]: 102 % of control

SMILES: Cc1ccc(SSc2ccc(C(C)(C)C)cc2)cc1
- T/C [10]: 97 % of control
- T/C [11]: 102 % of control
- T/C [16]: 99 % of control

SMILES: N#CC(C(=O)CCC(=O)C(C#N)c1nc2ccccc2s1)c1nc2ccccc2s1 (stereo not drawn)
- T/C (dose: 100.0 mg/kg/injection, schedule: Q01DX001 (ip), vehicle: saline with Tween-80): 89 % of control
- T/C (dose: 200.0 mg/kg/injection, schedule: Q01DX001 (ip), vehicle: saline with Tween-80): 88 % of control
- T/C (dose: 400.0 mg/kg/injection, schedule: Q01DX001 (ip), vehicle: saline with Tween-80): 91 % of control
